Experimental data published in ChEMBL document CHEMBL5321256, “Tolypocaibols: Antibacterial Lipopeptaibols from a Tolypocladium sp. Endophyte of the Marine Macroalga Spongomorpha arcta” (2023).
Converted amounts (≈) assume the structure as drawn. Square brackets hold non-standard residues; d marks the D form. Peptide text beside a SMILES is read from it. * marks the point of attachment. Pro(4S-Me) = C[C@@H]1CN[C@H](C(=O)O)C1; Decanoyl = CCCCCCCCCC(=O)*; Valol = CC(C)[C@@H](CO)N*; Aib = CC(C)(N)C(=O)O

Tests used:
Type in all cases: functional
Klebsiella pneumoniae = test: Antibacterial activity against Klebsiella pneumoniae measured after 18 to 20 hrs by broth microdilution method; details: time 18-20 hrs
Listeria ivanovii = test: Antibacterial activity against Listeria ivanovii ATCC BAA-139 measured after 18 to 20 hrs by broth microdilution method; details: time 18-20 hrs
Staphylococcus aureus [1] = test: Antibacterial activity against methicillin-resistant Staphylococcus aureus measured after 18 to 20 hrs by broth microdilution method; details: time 18-20 hrs
Enterococcus faecalis = test: Antibacterial activity against Enterococcus faecalis measured after 18 to 20 hrs by broth microdilution method; details: time 18-20 hrs
Enterococcus faecium = test: Antibacterial activity against Enterococcus faecium measured after 18 to 20 hrs by broth microdilution method; details: time 18-20 hrs
Pseudomonas aeruginosa = test: Antibacterial activity against Pseudomonas aeruginosa measured after 18 to 20 hrs by broth microdilution method; details: time 18-20 hrs
Klebsiella aerogenes = test: Antibacterial activity against Klebsiella aerogenes measured after 18 to 20 hrs by broth microdilution method; details: time 18-20 hrs
Salmonella enterica = test: Antibacterial activity against Salmonella enterica measured after 18 to 20 hrs by broth microdilution method; details: time 18-20 hrs
[2] = tested on: Providencia alcalifaciens; test: Antibacterial activity against Providencia alcalifaciens measured after 18 to 20 hrs by broth microdilution method; details: time 18-20 hrs
[3] = tested on: Mycolicibacterium smegmatis; test: Antibacterial activity against Mycobacterium smegmatis ATCC 70084 by resazurin microplate assay
Shigella sonnei = test: Antibacterial activity against Shigella sonnei measured after 18 to 20 hrs by broth microdilution method; details: time 18-20 hrs
Bacillus subtilis = test: Antibacterial activity against Bacillus subtilis measured after 18 to 20 hrs by broth microdilution method; details: time 18-20 hrs
Escherichia coli = test: Antibacterial activity against Escherichia coli measured after 18 to 20 hrs by broth microdilution method; details: time 18-20 hrs
Brucella anthropi = test: Antibacterial activity against Ochrobactrum anthropi measured after 18 to 20 hrs by broth microdilution method; details: time 18-20 hrs
[4] = tested on: Yersinia pseudotuberculosis; test: Antibacterial activity against Yersinia pseudotuberculosis measured after 18 to 20 hrs by broth microdilution method; details: time 18-20 hrs
[5] = tested on: Staphylococcus epidermidis; test: Antibacterial activity against Staphylococcus epidermidis measured after 18 to 20 hrs by broth microdilution method; details: time 18-20 hrs
Staphylococcus aureus [6] = test: Antibacterial activity against methicillin-susceptible Staphylococcus aureus measured after 18 to 20 hrs by broth microdilution method; details: time 18-20 hrs
Vibrio cholerae = test: Antibacterial activity against Vibrio cholerae measured after 18 to 20 hrs by broth microdilution method; details: time 18-20 hrs
[7] = tested on: Mycobacterium tuberculosis; test: Antibacterial activity against Mycobacterium tuberculosis ATCC 25177 by resazurin microplate assay

With `C=C[C@@H]1C[C@H](C)C[C@H](C)[C@H]1c1c(O)ccn(O[C@@H]2C(C(=O)OC)=C[C@@H](O)[C@@H](O)[C@H]2O)c1=O` the MIC (Klebsiella pneumoniae) was greater than 128 µM, the MIC (Listeria ivanovii) was 16 µM (≈ 7.19 µg/mL) and the MIC (Staphylococcus aureus [1]) was 128 µM (≈ 57.5 µg/mL). For the same molecule, the MIC (Enterococcus faecalis) was 128 µM (≈ 57.5 µg/mL), the MIC (Enterococcus faecium) was 128 µM (≈ 57.5 µg/mL) and the MIC (Pseudomonas aeruginosa) was greater than 128 µM. For the same molecule, the MIC (Klebsiella aerogenes) was greater than 128 µM, the MIC (Salmonella enterica) was 128 µM (≈ 57.5 µg/mL) and the MIC [2] was 128 µM (≈ 57.5 µg/mL). For the same molecule, the MIC [3] was greater than 250 µM, the MIC (Shigella sonnei) was 128 µM (≈ 57.5 µg/mL) and the MIC (Bacillus subtilis) was 128 µM (≈ 57.5 µg/mL). The MIC (Escherichia coli) was 128 µM (≈ 57.5 µg/mL), the MIC (Brucella anthropi) was 128 µM (≈ 57.5 µg/mL) and the MIC [4] was 128 µM (≈ 57.5 µg/mL). It also gave an MIC [5] of 128 µM (≈ 57.5 µg/mL), an MIC (Staphylococcus aureus [6]) of 128 µM (≈ 57.5 µg/mL) and an MIC (Vibrio cholerae) of 128 µM (≈ 57.5 µg/mL). For the same molecule, the MIC [7] was 250 µM (≈ 112 µg/mL).

For `CCCCCCCCCC(=O)NC(C)(C)C(=O)N1C[C@@H](C)C[C@H]1C(=O)N[C@@H](Cc1ccccc1)C(=O)NC(C)(C)C(=O)N[C@@H](CCC(N)=O)C(=O)N[C@@H](CCC(N)=O)C(=O)NC(C)(C)C(=O)NC(C)(C)C(=O)N[C@@H](CCC(N)=O)C(=O)N[C@@H](CC(C)C)C(=O)N[C@H](CO)C(C)C` (Decanoyl-[Aib][Pro(4S-Me)]F[Aib]QQ[Aib][Aib]QL-Valol), the MIC (Klebsiella pneumoniae) was greater than 128 µM, the MIC (Listeria ivanovii) was 8 µM (≈ 10.8 µg/mL) and the MIC (Staphylococcus aureus [1]) was 16 µM (≈ 21.7 µg/mL). The MIC (Enterococcus faecalis) was 16 µM (≈ 21.7 µg/mL), the MIC (Enterococcus faecium) was 16 µM (≈ 21.7 µg/mL) and the MIC (Pseudomonas aeruginosa) was greater than 128 µM. It also gave an MIC (Klebsiella aerogenes) greater than 128 µM, an MIC (Salmonella enterica) greater than 128 µM and an MIC [2] greater than 128 µM. It also gave an MIC [3] of 80 µM (≈ 108 µg/mL), an MIC (Shigella sonnei) greater than 128 µM and an MIC (Bacillus subtilis) of 4 µM (≈ 5.41 µg/mL). It also gave an MIC (Escherichia coli) greater than 128 µM, an MIC (Brucella anthropi) greater than 128 µM and an MIC [4] greater than 128 µM. For the same molecule, the MIC [5] was greater than 128 µM, the MIC (Staphylococcus aureus [6]) was 4 µM (≈ 5.41 µg/mL) and the MIC (Vibrio cholerae) was greater than 128 µM. The MIC [7] was 40 µM (≈ 54.1 µg/mL).

Work on `O=C(O)c1cn(C2CC2)c2cc(N3CCNCC3)c(F)cc2c1=O` [CIPROFLOXACIN] yielded an MIC (Klebsiella pneumoniae) of 2 µM (≈ 0.663 µg/mL), an MIC (Listeria ivanovii) of 8 µM (≈ 2.65 µg/mL) and an MIC (Staphylococcus aureus [1]) of 64 µM (≈ 21.2 µg/mL). The MIC (Enterococcus faecalis) was 1 µM (≈ 0.331 µg/mL), the MIC (Enterococcus faecium) was 0.67 µM (≈ 0.222 µg/mL) and the MIC (Pseudomonas aeruginosa) was 0.5 µM (≈ 0.166 µg/mL). It also gave an MIC (Klebsiella aerogenes) of 2.83 µM (≈ 0.938 µg/mL), an MIC (Salmonella enterica) of 0.05 µM (≈ 0.0166 µg/mL) and an MIC [2] of 0.13 µM (≈ 0.0431 µg/mL). It also gave an MIC [3] of 3.8 µM (≈ 1.26 µg/mL), an MIC (Shigella sonnei) of 0.08 µM (≈ 0.0265 µg/mL) and an MIC (Bacillus subtilis) of 0.38 µM (≈ 0.126 µg/mL). For the same molecule, the MIC (Escherichia coli) was 0.17 µM (≈ 0.0563 µg/mL), the MIC (Brucella anthropi) was 0.83 µM (≈ 0.275 µg/mL) and the MIC [4] was 0.14 µM (≈ 0.0464 µg/mL). The MIC [5] was 1.33 µM (≈ 0.441 µg/mL) and the MIC (Vibrio cholerae) was 0.02 µM (≈ 0.00663 µg/mL).

`CCCCCCCCCC(=O)NC(C)(C)C(=O)N1CCC[C@H]1C(=O)N[C@@H](Cc1ccccc1)C(=O)NC(C)(C)C(=O)N[C@@H](CCC(N)=O)C(=O)N[C@@H](CCC(N)=O)C(=O)NC(C)(C)C(=O)NC(C)(C)C(=O)N[C@@H](CCC(N)=O)C(=O)N[C@@H](CC(C)C)C(=O)N[C@H](CO)C(C)C` (Decanoyl-[Aib]PF[Aib]QQ[Aib][Aib]QL-Valol) gave an MIC (Klebsiella pneumoniae) greater than 128 µM, an MIC (Listeria ivanovii) of 8 µM (≈ 10.7 µg/mL) and an MIC (Staphylococcus aureus [1]) of 16 µM (≈ 21.4 µg/mL). For the same molecule, the MIC (Enterococcus faecalis) was 32 µM (≈ 42.9 µg/mL), the MIC (Enterococcus faecium) was 32 µM (≈ 42.9 µg/mL) and the MIC (Pseudomonas aeruginosa) was greater than 128 µM. For the same molecule, the MIC (Klebsiella aerogenes) was greater than 128 µM, the MIC (Salmonella enterica) was greater than 128 µM and the MIC [2] was greater than 128 µM. It also gave an MIC [3] of 80 µM (≈ 107 µg/mL), an MIC (Shigella sonnei) greater than 128 µM and an MIC (Bacillus subtilis) of 8 µM (≈ 10.7 µg/mL). For the same molecule, the MIC (Escherichia coli) was greater than 128 µM, the MIC (Brucella anthropi) was greater than 128 µM and the MIC [4] was greater than 128 µM. The MIC [5] was greater than 128 µM, the MIC (Staphylococcus aureus [6]) was 8 µM (≈ 10.7 µg/mL) and the MIC (Vibrio cholerae) was greater than 128 µM. It also gave an MIC [7] of 20 µM (≈ 26.8 µg/mL).

For `CO[C@H]1/C=C/O[C@@]2(C)Oc3c(C)c(O)c4c(O)c(c(/C=N/N5CCN(C)CC5)c(O)c4c3C2=O)NC(=O)/C(C)=C\C=C\[C@H](C)[C@H](O)[C@@H](C)[C@@H](O)[C@@H](C)[C@H](OC(C)=O)[C@@H]1C` [RIFAMPIN], the MIC (Klebsiella pneumoniae) was 16 µM (≈ 13.2 µg/mL), the MIC (Listeria ivanovii) was 0.02 µM (≈ 0.0165 µg/mL) and the MIC (Staphylococcus aureus [1]) was 2 µM (≈ 1.65 µg/mL). It also gave an MIC (Enterococcus faecalis) of 1 µM (≈ 0.823 µg/mL), an MIC (Enterococcus faecium) of 21.3 µM (≈ 17.5 µg/mL) and an MIC (Pseudomonas aeruginosa) of 53.3 µM (≈ 43.9 µg/mL). For the same molecule, the MIC (Klebsiella aerogenes) was 8 µM (≈ 6.58 µg/mL), the MIC (Salmonella enterica) was 2 µM (≈ 1.65 µg/mL) and the MIC [2] was 8 µM (≈ 6.58 µg/mL). For the same molecule, the MIC (Shigella sonnei) was 1.67 µM (≈ 1.37 µg/mL), the MIC (Bacillus subtilis) was 0.19 µM (≈ 0.156 µg/mL) and the MIC (Escherichia coli) was 4 µM (≈ 3.29 µg/mL). The MIC (Brucella anthropi) was 4 µM (≈ 3.29 µg/mL), the MIC [4] was 10.7 µM (≈ 8.81 µg/mL) and the MIC [5] was 0.02 µM (≈ 0.0165 µg/mL). It also gave an MIC (Staphylococcus aureus [6]) of 0.01 µM (≈ 0.00823 µg/mL), an MIC (Vibrio cholerae) greater than 128 µM and an MIC [7] of 0.062 µM (≈ 0.051 µg/mL).
